From ChEMBL document CHEMBL4304812, “Synthesis and Bioactivity of the Alanyl Phosphonamidate Stereoisomers Derived from a Butyrophilin Ligand” (ACS Med Chem Lett, 2019)

Legend:
[1] = system: PBMC; assay: Activation of cell proliferation in human PBMC incubated for 72 hrs by Cell Quanti Blue reagent based assay; type: functional
[2] = Stability in 50% human plasma at 100 uM measured for 24 hrs by LCMS analysis; type: ADME, cell-free
[3] = biological target: T1, Butyrophilin subfamily 3 member A1 (Homo sapiens, UniProt O00481); assay: Activation of butyrophilin 3A1 in human K562 cells assessed as interferon-gamma production pretreated for 240 mins followed by HMBPP-treated Vgamma9Vdelta2 T cells addition and measured after 20 hrs by ELISA; type: cell-based
[4] = biological target: T1, Butyrophilin subfamily 3 member A1; assay: Activation of butyrophilin 3A1 in human K562 cells assessed as interferon-gamma production pretreated for 60 mins followed by HMBPP-treated Vgamma9Vdelta2 T cells addition and measured after 20 hrs by ELISA; type: cell-based
[5] = biological target: T1, Butyrophilin subfamily 3 member A1; assay: Activation of butyrophilin 3A1 in human K562 cells assessed as interferon-gamma production pretreated for 15 mins followed by HMBPP-treated Vgamma9Vdelta2 T cells addition and measured after 20 hrs by ELISA; type: cell-based

T1 sequence (O00481 whole entry): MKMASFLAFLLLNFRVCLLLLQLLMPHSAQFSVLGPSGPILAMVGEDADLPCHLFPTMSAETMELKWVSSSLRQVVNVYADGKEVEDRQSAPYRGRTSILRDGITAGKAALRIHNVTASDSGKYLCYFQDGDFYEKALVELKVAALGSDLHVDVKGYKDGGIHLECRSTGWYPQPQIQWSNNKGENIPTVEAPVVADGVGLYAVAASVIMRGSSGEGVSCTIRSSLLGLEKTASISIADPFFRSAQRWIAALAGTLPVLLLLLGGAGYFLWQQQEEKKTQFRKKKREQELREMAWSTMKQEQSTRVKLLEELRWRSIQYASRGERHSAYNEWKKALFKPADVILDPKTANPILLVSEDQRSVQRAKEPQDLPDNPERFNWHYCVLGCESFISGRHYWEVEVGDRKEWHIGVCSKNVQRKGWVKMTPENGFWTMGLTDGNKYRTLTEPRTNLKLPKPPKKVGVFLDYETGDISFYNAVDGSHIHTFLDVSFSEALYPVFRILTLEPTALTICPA

| Compound | EC50 [1] | Stability [2] | EC50 [3] | EC50 [4] | EC50 [5] |
| --- | --- | --- | --- | --- | --- |
| C/C(=C\COP(=O)(O)OP(=O)(O)O)CO | 0.5 nM |  |  |  |  |
| C/C(=C\CCP(=O)(OCOC(=O)C(C)(C)C)OCOC(=O)C(C)(C)C)CO |  | Stable |  |  |  |
| O=P(O)(O)C(O)(Cn1ccnc1)P(=O)(O)O [ZOLEDRONIC ACID] |  |  | 23000 nM | 79000 nM | > 100000 nM |
| CCOC(=O)CNP(=O)(CC/C=C(\C)CO)Oc1ccccc1 (racemic) |  |  | 51 nM | 230 nM | 1500 nM |
| C/C(=C\CCP(=O)(OCOC(=O)C(C)(C)C)Oc1ccccc1)CO (configuration not stated) | 14 nM |  |  |  |  |
| CCOC(=O)[C@@H](C)N[P@@](=O)(CC/C=C(\C)CO)Oc1ccccc1 |  | Stable | 430 nM | 1500 nM | 4600 nM |
| CCOC(=O)[C@H](C)N[P@@](=O)(CC/C=C(\C)CO)Oc1ccccc1 | 0.28 nM | Stable | 21 nM | 79 nM | 200 nM |
| CCOC(=O)[C@@H](C)N[P@](=O)(CC/C=C(\C)CO)Oc1ccccc1 |  | Stable | 520 nM | 2000 nM | 6000 nM |
| C/C(=C\CCP(=O)(OCOC(=O)C(C)(C)C)Oc1cccc2ccccc12)CO (configuration not stated) | 0.79 nM |  |  |  |  |
| C/C(=C\CCP(=O)(O)OP(=O)(O)O)CO |  |  | 280 nM | 1200 nM | 7600 nM |
| CCOC(=O)[C@H](C)N[P@](=O)(CC/C=C(\C)CO)Oc1ccccc1 | 0.43 nM | Stable | 43 nM | 160 nM | 460 nM |
| C/C(=C\CCP(=O)(O)O)CO | 4000 nM |  |  |  |  |
